Source: US20250019377A1 (JACOBIO PHARMACEUTICALS CO., LTD, priority 2021, published 2025)
Like-named read-outs stand apart in the source and are kept apart here.

Legend:
K-Ras G12V [1] = biological target: T1, K-Ras G12V (Homo sapiens, UniProt P01116, G12V); test: SOS1 catalyzed nucleotide exchange assay (GDP form K-Ras), K-Ras G12V; conditions: read-out: K-Ras G12V GDP Biochemical Activity (IC50)
K-Ras G13D [2] = biological target: T2, K-Ras G13D (Homo sapiens, UniProt P01116, G13D); test: biochemical
K-Ras G13D [3] = biological target: T2, K-Ras G13D; test: biochemical; remark: listed apart in the source
K-Ras WT [4] = biological target: T3, K-Ras WT (Homo sapiens, UniProt P01116); test: SOS1 catalyzed nucleotide exchange assay (GDP form K-Ras), K-Ras WT; conditions: read-out: K-Ras WT GDP Biochemical Activity (IC50)
K-Ras G12V [5] = biological target: T1, K-Ras G12V; test: biochemical
[6] = system: p-ERK in AGS cells (K-Ras G12D); test: Phospho-ERK1/2(THR202/TYR204) HTRF assay, AGS; assay type: cell-based; conditions: 2 hours incubation
K-Ras WT [7] = biological target: T3, K-Ras WT; test: biochemical
SW620 cells (K-Ras G12V) = test: 2D cell growth inhibition assay, SW620; assay type: cell-based; conditions: 6 days, absolute IC50
[8] = system: p-ERK in SW620 cells (K-Ras G12V); test: Phospho-ERK1/2(THR202/TYR204) HTRF assay, SW620; assay type: cell-based; conditions: 2 hours incubation
AGS cells (K-Ras G12D) = test: 2D cell growth inhibition assay, AGS; assay type: cell-based; conditions: 6 days, absolute IC50
[9] = system: AsPC-1 cells (K-Ras G12D); test: 2D cell growth inhibition assay, AsPC-1; assay type: cell-based; conditions: AsPC-1, K-Ras G12D, 6 days, absolute IC50
[10] = system: p-ERK in NCI-H747 cells (K-Ras G13D)
[11] = system: NCI-H747 cells (K-Ras G13D)

T2 sequence (P01116 1-169 isoform P01116-2 G13D): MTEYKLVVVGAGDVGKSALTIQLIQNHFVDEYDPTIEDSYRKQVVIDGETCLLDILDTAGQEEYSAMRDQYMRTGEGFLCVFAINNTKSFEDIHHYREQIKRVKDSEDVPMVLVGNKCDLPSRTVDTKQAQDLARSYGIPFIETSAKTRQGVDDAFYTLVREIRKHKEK
T3 sequence (P01116 1-169 isoform P01116-2): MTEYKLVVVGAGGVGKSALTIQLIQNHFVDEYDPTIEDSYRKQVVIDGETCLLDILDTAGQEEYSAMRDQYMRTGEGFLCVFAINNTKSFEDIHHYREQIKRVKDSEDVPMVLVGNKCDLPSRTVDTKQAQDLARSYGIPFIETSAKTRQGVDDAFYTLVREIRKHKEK
T1 sequence (P01116 1-169 isoform P01116-2 G12V): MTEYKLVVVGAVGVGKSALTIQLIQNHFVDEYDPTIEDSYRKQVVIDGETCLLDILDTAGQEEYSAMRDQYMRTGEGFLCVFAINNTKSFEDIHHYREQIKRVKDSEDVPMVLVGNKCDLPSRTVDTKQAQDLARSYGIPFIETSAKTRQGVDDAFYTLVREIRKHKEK

IC50 (K-Ras G12V [1]) [nM] | IC50 (K-Ras G13D [2]) [nM] | IC50 (K-Ras G13D [3]) [nM] | IC50 (K-Ras WT [4]) [nM] | IC50 (K-Ras G12V [5]) [nM] | IC50 ([6]; Homo sapiens, 2 h) [nM] | IC50 (K-Ras WT [7]) [nM] | IC50 (SW620 cells (K-Ras G12V); Homo sapiens, SW-620, 144 h) [nM] | IC50 ([8]; Homo sapiens, SW-620, 2 h) [nM] | IC50 (AGS cells (K-Ras G12D); Homo sapiens, 144 h) [nM] | IC50 ([9]; Homo sapiens, ASPC1, 144 h) [nM] | IC50 [6] [nM] | IC50 (SW620 cells (K-Ras G12V)) [nM] | IC50 [8] [nM] | IC50 (AGS cells (K-Ras G12D)) [nM] | IC50 [9] [nM] | IC50 [10] [nM] | IC50 [11] [nM] | Structure (SMILES)
23.7 | > 200 | > 100 | 60.2 | 2070 | – | – | – | – | – | – | – | – | – | – | – | – | – | C#Cc1c(F)ccc2cc(O)cc(-c3ncc4c(N5CCCO[C@H](CC#N)C5)nc(OC[C@@]56CCCN5C[C@H](F)C6)nc4c3F)c12 (single isomer, unassigned)
0.873 | – | – | 1.4 | 331 | 13.9 | 173 | 59.6 | 30.1 | 30.4 | 465 | – | – | – | – | – | – | – | C#Cc1c(F)ccc2cc(O)cc(-c3ncc4c(N5CCCO[C@@H](CC#N)C5)nc(OC[C@@]56CCCN5C[C@H](F)C6)nc4c3F)c12 (single isomer, unassigned) [Compound 15B]
1.37 | – | – | 2.66 | 62.6 | 10.4 | 70.4 | 28.6 | 30 | 20.6 | 150 | – | – | – | – | – | – | – | C#Cc1c(F)ccc2cc(O)cc(-c3ncc4c(N5CCCOCC5)nc(OCC56CCCN5C[C@@](C)(F)C6)nc4c3F)c12 (single isomer, unassigned) [Compound 32A]
1.97 | – | – | 3.12 | 69.7 | 12.1 | 77.4 | 27.9 | 17.1 | 18.6 | 135 | – | – | – | – | – | – | – | C#Cc1c(F)ccc2cc(O)cc(-c3ncc4c(N5CCCOCC5)nc(OCC56CCCN5C[C@](C)(F)C6)nc4c3F)c12 (single isomer, unassigned) [Compound 32B]
3.12 | – | – | 7.95 | 343 | 83.9 | 394 | 630 | 321 | 187 | 2870 | – | – | – | – | – | – | – | C#Cc1c(F)ccc2cc(O)cc(-c3ncc4c(N5CCOC[C@H](O)C5)nc(OC[C@@]56CCCN5C[C@H](F)C6)nc4c3F)c12 (single isomer, unassigned) [Compound 46A]
1.26 | – | – | 0.964 | 50.9 | 15 | 31.7 | 50.1 | 45.7 | 20.6 | 446 | – | – | – | – | – | – | – | C#Cc1c(F)ccc2cc(O)cc(-c3ncc4c(N5CCOC[C@@H](O)C5)nc(OC[C@@]56CCCN5C[C@H](F)C6)nc4c3F)c12 (single isomer, unassigned) [Compound 46B]
3.43 | – | – | 11.4 | 3720 | – | 2990 | – | – | – | – | 29.1 | 60.6 | 19.4 | 203 | 1100 | – | – | C#Cc1c(F)ccc2cc(O)cc(-c3ncc4c(N5CC6COC(C6)C5)nc(OC[C@@]56CCCN5C[C@H](F)C6)nc4c3F)c12 (single isomer, unassigned) [Compound 84A, 4-(4-((1R,5S)-6-oxa-3-azabicyclo[3.2.1]octan-3-yl)-8-fluoro-2-(((2R,7aS)-2-fluorotetra-hydro-1H-pyrrolizin-7a(5H)-yl)methoxy)pyrido[4,3-d]pyrimidin-7-yl)-5-ethynyl-6-fluoronaphthalen-2-ol or 4-(4-((1S,5R)-6-oxa-3-azabicyclo[3.2.1]octan-3-yl)-8-fluoro-2-(((2R,7aS)-2-fluorotetra-hydro-1H-pyrrolizin-7a(5H)-yl)methoxy)pyrido[4,3-d]pyrimidin-7-yl)-5-ethynyl-6-fluoronaphthalen-2-ol]
1.28 | – | – | 2.05 | 40.6 | 6.71 | 62.1 | 10.5 | 10.6 | 26.2 | 228 | – | – | – | – | – | – | – | C#Cc1c(F)ccc2cc(O)cc(-c3ncc4c(N5CCCOCC5)nc(OCC56CCCN5CC(C)(F)C6)nc4c3F)c12 (centres unmarked) [Compound 10, 5-ethynyl-6-fluoro-4-(8-fluoro-2-((2-fluoro-2-methyltetrahydro-1H-pyrrolizin-7a(5H)-yl)methoxy)-4-(1,4-oxazepan-4-yl)pyrido[4,3-d]pyrimidin-7-yl)naphthalen-2-ol]
26.8 | – | 61.2 | – | 796 | – | – | – | – | – | – | – | – | – | – | – | – | – | C#Cc1c(F)ccc2cc(O)cc(-c3ncc4c(N5CCOC(C)CC5)nc(OC[C@@]56CCCN5C[C@H](F)C6)nc4c3F)c12 (stereo partly drawn) [Compound 17, 5-ethynyl-6-fluoro-4-(8-fluoro-2-(((2R,7aS)-2-fluorotetrahydro-1H-pyrrolizin-7a(5H)-yl)methoxy)-4-(7-methyl-1,4-oxazepan-4-yl)pyrido[4,3-d]pyrimidin-7-yl)naphthalen-2-ol trifluoroacetic acid]
8.81 | – | – | 12.7 | 1630 | 53 | – | 139 | 29.3 | 203 | 538 | – | – | – | – | – | 28.2 | 339 | C#Cc1c(F)ccc2cc(O)cc(-c3ccc4c(N5CCCOCC5)nc(OCC5(CN6CCOCC6)CC5)nc4c3F)c12 [Compound 20, 5-ethynyl-6-fluoro-4-(8-fluoro-2-((1-(morpholinomethyl)cyclopropyl)methoxy)-4-(1,4-oxazepan-4-yl)quinazolin-7-yl)naphthalen-2-ol trifluoroacetic acid]
– | – | – | – | – | 10.2 | – | 61.4 | 135 | 51.9 | 1350 | – | – | – | – | – | 60.7 | 126 | C#Cc1c(F)ccc2cc(O)cc(-c3ncc4c(N5CCCOCC5)nc(OCC56CCCN5CCC6)nc4c3F)c12 [Compound 21, 5-ethynyl-6-fluoro-4-(8-fluoro-4-(1,4-oxazepan-4-yl)-2-((tetrahydro-1H-pyrrolizin-7a(5H)-yl)methoxy)pyrido[4,3-d]pyrimidin-7-yl)naphthalen-2-ol trifluoroacetic acid]
8.13 | – | – | 9.51 | 720 | 65.1 | 235 | 90.7 | 144 | 216 | 904 | – | – | – | – | – | – | – | C#Cc1c(F)ccc2cc(O)cc(-c3ncc4c(N5CC(C)COCC5C)nc(OC[C@@]56CCCN5C[C@H](F)C6)nc4c3F)c12 (stereo partly drawn) [Compound 27, 4-(4-(3,6-dimethyl-1,4-oxazepan-4-yl)-8-fluoro-2-(((2R,7aS)-2-fluorotetrahydro-1H-pyrrolizin-7a(5H)-yl)methoxy)pyrido[4,3-d]pyrimidin-7-yl)-5-ethynyl-6-fluoronaphthalen-2-ol]
6.71 | – | > 100 | 9.93 | 147 | 49.2 | 228 | 330 | 92 | 278 | 629 | – | – | – | – | – | – | – | C#Cc1c(F)ccc2cc(O)cc(-c3c(C(F)(F)F)cc4c(N5CCCOCC5)nc(OC[C@@]56CCCN5C[C@H](F)C6)nc4c3F)c12 [Compound 37, 5-ethynyl-6-fluoro-4-(8-fluoro-2-(((2R,7aS)-2-fluorotetrahydro-1H-pyrrolizin-7a(5H)-yl)methoxy)-4-(1,4-oxazepan-4-yl)-6-(trifluoromethyl)quinazolin-7-yl)naphthalen-2-ol]
18.6 | 114 | > 100 | 65.9 | 2770 | – | – | – | – | – | – | – | – | – | – | – | – | – | C#Cc1c(F)ccc2cc(O)cc(-c3ncc4c(N5CCCOCC5)nc(OCC5CNCCN5C)nc4c3F)c12 (centres unmarked) [Compound 96, 5-ethynyl-6-fluoro-4-(8-fluoro-2-((1-methyl-piperazin-2-yl)methoxy)-4-(1,4-oxazepan-4-yl)pyrido[4,3-d]pyrimidin-7-yl)naph-thalen-2-ol]
22.6 | > 100 | > 100 | 34.3 | 2910 | – | – | – | – | – | – | – | – | – | – | – | – | – | C#Cc1c(F)ccc2cc(O)cc(-c3ncc4c(N5CCCOCC5)nc(OCC5CC6CCN5CC6)nc4c3F)c12 (centres unmarked) [Compound 99, 5-ethynyl-6-fluoro-4-(8-fluoro-4-(1,4-oxa-zepan-4-yl)-2-(quinuclidin-2-ylmethoxy)pyrido[4,3-d]pyrimidin-7-yl)naphthalen-2-ol]
2.7 | 2.18 | – | 2.56 | 298 | 7.7 | 194 | 120 | 95.6 | 25.5 | 218 | – | – | – | – | – | – | – | C#Cc1c(F)ccc2cc(O)cc(-c3ncc4c(N5CCOCC(C)(F)C5)nc(OC[C@@]56CCCN5C[C@H](F)C6)nc4c3F)c12 (stereo partly drawn) [Compound 101, 5-ethynyl-6-fluoro-4-(8-fluoro-4-(6-fluoro-6-methyl-1,4-oxazepan-4-yl)-2-(((2R,7aS)-2-fluorotetrahydro-1H-pyrrolizin-7a(5H)-yl)methoxy)pyrido[4,3-d]pyrimidin-7-yl)naphthalen-2-ol]

Structure (SMILES) | IC50 (K-Ras G12V [1]) [nM] | IC50 (K-Ras G13D [2]) [nM] | IC50 (K-Ras G13D [3]) [nM] | IC50 (K-Ras WT [4]) [nM] | IC50 (K-Ras G12V [5]) [nM] | IC50 ([6]; Homo sapiens, 2 h) [nM] | IC50 (K-Ras WT [7]) [nM] | IC50 (SW620 cells (K-Ras G12V); Homo sapiens, SW-620, 144 h) [nM] | IC50 ([8]; Homo sapiens, SW-620, 2 h) [nM] | IC50 (AGS cells (K-Ras G12D); Homo sapiens, 144 h) [nM] | IC50 ([9]; Homo sapiens, ASPC1, 144 h) [nM] | IC50 [6] [nM] | IC50 (SW620 cells (K-Ras G12V)) [nM] | IC50 [8] [nM] | IC50 (AGS cells (K-Ras G12D)) [nM] | IC50 [9] [nM] | IC50 [10] [nM] | IC50 [11] [nM]
C#Cc1c(F)ccc2cc(O)cc(-c3ncc4c(N5CCOCC(C#N)C5)nc(OC[C@@]56CCCN5C[C@H](F)C6)nc4c3F)c12 (some centres unmarked) [Compound 88] | 13.6 | – | > 100 | 28.5 | 2850 | – | – | – | – | – | – | – | – | – | – | – | – | –
